Data as given in the kinase profiling compilation of Christmann-Franck et al. (2016).

Legend:
Test in all cases: KINOMEscan competition binding
Conditions in all cases: compound 10.0 µM
MUSK (human) = MUSK (human) (UniProt O15146)
MTOR (human) = MTOR (human) (UniProt P42345)
MYLK4 (human) = MYLK4 (human) (UniProt Q86YV6)
MAPK1 (human) = MAPK1 (human) (UniProt P28482)
MLTK (human) = MLTK (human) (UniProt Q9NYL2)
PLK2 (human) = PLK2 (human) (UniProt Q9NYY3)
ACVR1B (human) = ACVR1B (human) (UniProt P36896)
KDR (human) = KDR (human) (UniProt P35968)
PDPK1 (human) = PDPK1 (human) (UniProt O15530)
Sequence of PDPK1 (human) (O15530 whole entry, looked up): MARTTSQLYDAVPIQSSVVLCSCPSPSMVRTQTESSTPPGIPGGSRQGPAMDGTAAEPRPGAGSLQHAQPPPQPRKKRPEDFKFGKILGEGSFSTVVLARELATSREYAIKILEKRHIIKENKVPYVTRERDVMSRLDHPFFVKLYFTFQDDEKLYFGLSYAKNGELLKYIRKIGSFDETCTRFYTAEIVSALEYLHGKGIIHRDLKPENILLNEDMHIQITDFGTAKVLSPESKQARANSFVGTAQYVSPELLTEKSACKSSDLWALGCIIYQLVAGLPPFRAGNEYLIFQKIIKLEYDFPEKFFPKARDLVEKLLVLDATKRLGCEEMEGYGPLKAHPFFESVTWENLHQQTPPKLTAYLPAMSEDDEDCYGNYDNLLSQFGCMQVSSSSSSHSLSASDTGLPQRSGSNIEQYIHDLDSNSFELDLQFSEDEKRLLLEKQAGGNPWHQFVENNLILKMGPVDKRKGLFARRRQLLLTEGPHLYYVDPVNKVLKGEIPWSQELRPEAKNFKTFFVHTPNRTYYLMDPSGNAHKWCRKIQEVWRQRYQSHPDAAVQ

CSNK1D (human) = CSNK1D (human) (UniProt P48730)
MAPK7 (human) = MAPK7 (human) (UniProt Q13164)
HUNK (human) = HUNK (human) (UniProt P57058)
RPS6KA6 KD2 (human) = RPS6KA6 KD2 (human) (UniProt Q9UK32)
Sequence of RPS6KA6 KD2 (human) (Q9UK32 whole entry, looked up): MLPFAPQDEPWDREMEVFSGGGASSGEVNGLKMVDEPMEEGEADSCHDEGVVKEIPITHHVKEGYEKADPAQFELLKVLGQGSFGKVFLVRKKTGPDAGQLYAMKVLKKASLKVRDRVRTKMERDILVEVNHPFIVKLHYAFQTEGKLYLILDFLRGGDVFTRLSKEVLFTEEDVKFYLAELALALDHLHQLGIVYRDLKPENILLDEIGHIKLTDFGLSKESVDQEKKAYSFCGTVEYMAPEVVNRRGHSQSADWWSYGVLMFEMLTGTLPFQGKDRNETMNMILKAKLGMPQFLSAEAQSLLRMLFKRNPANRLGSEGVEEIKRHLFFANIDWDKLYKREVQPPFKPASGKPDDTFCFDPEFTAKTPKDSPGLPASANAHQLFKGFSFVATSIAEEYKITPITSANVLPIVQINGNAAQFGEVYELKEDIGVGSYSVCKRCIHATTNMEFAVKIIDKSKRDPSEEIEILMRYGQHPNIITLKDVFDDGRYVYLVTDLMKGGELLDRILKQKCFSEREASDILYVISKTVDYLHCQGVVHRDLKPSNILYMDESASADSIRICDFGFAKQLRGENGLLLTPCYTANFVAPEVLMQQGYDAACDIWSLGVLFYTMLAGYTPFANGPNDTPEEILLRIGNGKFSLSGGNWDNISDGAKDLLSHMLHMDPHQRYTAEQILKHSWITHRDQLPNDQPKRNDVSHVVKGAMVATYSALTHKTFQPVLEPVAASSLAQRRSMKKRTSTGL

MET (human) = MET (human) (UniProt P08581)
TYRO3 (human) = TYRO3 (human) (UniProt Q06418)
AKT3 (human) = AKT3 (human) (UniProt Q9Y243)
NTRK2 (human) = NTRK2 (human) (UniProt Q16620)
ACVR1 (human) = ACVR1 (human) (UniProt Q04771)
RPS6KA1 KD1 (human) = RPS6KA1 KD1 (human) (UniProt Q15418)
MAPK4 (human) = MAPK4 (human) (UniProt P31152)
IRAK3 (human) = IRAK3 (human) (UniProt Q9Y616)
Sequence of IRAK3 (human) (Q9Y616 whole entry, looked up): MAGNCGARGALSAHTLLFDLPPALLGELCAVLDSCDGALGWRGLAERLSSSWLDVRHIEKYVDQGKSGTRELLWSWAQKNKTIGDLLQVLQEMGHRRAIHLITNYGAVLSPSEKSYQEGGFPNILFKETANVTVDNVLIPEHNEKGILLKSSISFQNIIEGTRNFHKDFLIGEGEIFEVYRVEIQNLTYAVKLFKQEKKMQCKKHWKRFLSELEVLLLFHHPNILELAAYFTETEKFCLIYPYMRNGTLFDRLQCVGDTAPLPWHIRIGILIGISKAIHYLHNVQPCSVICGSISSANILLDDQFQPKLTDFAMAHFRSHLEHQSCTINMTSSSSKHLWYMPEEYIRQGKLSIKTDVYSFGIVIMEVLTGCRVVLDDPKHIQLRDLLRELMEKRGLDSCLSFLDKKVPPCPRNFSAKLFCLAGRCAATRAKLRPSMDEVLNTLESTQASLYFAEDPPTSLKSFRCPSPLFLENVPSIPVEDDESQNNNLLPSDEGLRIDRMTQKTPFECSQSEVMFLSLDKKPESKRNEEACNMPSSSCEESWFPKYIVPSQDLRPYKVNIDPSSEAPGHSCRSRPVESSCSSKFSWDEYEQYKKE

PI4KB (human) = PI4KB (human) (UniProt Q9UBF8)
CDKL1 (human) = CDKL1 (human) (UniProt Q00532)
LATS1 (human) = LATS1 (human) (UniProt O95835)
PIK3CA (human) = PIK3CA (human) (UniProt P42336)
IGF1R (human) = IGF1R (human) (UniProt P08069)
BRAF (human) = BRAF (human) (UniProt P15056)
Sequence of BRAF (human) (P15056 whole entry, looked up): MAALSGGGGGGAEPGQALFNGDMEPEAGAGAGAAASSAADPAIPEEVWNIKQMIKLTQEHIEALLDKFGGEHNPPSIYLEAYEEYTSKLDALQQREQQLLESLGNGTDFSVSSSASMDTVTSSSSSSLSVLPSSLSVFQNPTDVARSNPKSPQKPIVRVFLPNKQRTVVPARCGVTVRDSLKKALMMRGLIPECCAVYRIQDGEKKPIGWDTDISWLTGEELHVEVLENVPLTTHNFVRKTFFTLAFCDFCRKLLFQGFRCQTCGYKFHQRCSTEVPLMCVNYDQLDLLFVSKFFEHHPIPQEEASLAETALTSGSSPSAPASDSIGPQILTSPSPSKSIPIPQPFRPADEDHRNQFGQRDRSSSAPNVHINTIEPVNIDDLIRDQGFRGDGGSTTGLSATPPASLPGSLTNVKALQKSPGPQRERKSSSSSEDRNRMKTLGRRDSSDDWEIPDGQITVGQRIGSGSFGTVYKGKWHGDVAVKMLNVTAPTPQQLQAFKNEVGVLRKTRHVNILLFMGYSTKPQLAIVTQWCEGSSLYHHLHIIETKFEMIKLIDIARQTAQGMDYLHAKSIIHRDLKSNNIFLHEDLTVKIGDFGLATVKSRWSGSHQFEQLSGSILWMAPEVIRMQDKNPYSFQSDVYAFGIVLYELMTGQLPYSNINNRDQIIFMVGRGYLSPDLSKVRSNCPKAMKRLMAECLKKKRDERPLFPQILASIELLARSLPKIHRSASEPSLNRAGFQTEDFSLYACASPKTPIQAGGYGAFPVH

CDK3 (human) = CDK3 (human) (UniProt Q00526)
HCK (human) = HCK (human) (UniProt P08631)
CDK19 (human) = CDK19 (human) (UniProt Q9BWU1)
BMPR1B (human) = BMPR1B (human) (UniProt O00238)
CSNK1A1 (human) = CSNK1A1 (human) (UniProt P48729)
Sequence of CSNK1A1 (human) (P48729 whole entry, looked up): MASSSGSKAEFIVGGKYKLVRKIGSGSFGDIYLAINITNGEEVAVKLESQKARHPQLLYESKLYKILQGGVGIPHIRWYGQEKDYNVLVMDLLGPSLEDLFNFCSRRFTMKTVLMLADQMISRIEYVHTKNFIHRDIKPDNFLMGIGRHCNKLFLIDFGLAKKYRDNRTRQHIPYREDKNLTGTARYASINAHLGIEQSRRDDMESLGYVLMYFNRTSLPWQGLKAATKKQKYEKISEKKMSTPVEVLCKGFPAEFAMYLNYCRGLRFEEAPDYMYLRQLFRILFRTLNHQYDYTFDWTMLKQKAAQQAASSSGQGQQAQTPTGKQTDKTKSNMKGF

[1] = biological target: TYK2 JH2 pseudokinase (human) (UniProt P29597)
CSNK2A2 (human) = CSNK2A2 (human) (UniProt P19784)
BRSK1 (human) = BRSK1 (human) (UniProt Q8TDC3)
Sequence of BRSK1 (human) (Q8TDC3 whole entry, looked up): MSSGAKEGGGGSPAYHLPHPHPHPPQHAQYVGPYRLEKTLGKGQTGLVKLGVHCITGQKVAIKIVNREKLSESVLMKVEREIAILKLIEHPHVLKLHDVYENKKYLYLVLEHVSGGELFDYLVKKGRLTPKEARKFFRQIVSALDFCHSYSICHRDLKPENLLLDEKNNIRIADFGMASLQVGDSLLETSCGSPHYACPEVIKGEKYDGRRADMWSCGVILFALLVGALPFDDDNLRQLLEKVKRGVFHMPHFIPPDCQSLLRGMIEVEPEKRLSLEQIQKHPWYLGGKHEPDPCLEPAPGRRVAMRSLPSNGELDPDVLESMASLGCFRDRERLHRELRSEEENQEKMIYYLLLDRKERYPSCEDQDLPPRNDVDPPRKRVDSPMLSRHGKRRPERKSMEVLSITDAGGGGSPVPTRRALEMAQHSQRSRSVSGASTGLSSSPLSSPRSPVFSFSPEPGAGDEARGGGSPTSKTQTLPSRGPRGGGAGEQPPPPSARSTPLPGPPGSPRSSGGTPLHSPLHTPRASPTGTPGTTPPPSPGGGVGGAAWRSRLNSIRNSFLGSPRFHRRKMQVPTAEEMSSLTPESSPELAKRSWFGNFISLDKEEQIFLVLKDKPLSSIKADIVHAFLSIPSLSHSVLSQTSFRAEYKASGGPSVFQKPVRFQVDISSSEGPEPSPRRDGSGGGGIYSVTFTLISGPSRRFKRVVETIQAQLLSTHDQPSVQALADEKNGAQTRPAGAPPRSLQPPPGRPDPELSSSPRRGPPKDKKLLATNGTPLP

AURKB (human) = AURKB (human) (UniProt Q96GD4)
TNNI3K (human) = TNNI3K (human) (UniProt Q59H18)
WEE2 (human) = WEE2 (human) (UniProt P0C1S8)
Sequence of WEE2 (human) (P0C1S8 whole entry, looked up): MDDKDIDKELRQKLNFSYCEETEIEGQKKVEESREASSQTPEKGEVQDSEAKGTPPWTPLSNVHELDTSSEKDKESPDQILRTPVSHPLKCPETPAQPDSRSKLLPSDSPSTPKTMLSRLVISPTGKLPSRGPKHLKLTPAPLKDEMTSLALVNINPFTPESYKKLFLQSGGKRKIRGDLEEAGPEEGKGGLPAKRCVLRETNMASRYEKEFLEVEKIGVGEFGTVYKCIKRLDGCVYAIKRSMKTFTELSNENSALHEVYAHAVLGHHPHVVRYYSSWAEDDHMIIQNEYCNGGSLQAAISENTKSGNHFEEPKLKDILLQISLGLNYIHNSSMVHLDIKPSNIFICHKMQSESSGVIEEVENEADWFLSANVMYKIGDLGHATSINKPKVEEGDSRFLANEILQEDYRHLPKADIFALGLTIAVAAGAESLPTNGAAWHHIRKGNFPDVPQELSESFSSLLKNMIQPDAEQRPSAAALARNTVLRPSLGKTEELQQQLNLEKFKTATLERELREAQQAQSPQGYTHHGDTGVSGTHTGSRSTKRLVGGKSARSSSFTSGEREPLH

YES1 (human) = YES1 (human) (UniProt P07947)
CDK13 (human) = CDK13 (human) (UniProt Q14004)

Sequence of PLK2 (human) (Q9NYY3 whole entry, looked up): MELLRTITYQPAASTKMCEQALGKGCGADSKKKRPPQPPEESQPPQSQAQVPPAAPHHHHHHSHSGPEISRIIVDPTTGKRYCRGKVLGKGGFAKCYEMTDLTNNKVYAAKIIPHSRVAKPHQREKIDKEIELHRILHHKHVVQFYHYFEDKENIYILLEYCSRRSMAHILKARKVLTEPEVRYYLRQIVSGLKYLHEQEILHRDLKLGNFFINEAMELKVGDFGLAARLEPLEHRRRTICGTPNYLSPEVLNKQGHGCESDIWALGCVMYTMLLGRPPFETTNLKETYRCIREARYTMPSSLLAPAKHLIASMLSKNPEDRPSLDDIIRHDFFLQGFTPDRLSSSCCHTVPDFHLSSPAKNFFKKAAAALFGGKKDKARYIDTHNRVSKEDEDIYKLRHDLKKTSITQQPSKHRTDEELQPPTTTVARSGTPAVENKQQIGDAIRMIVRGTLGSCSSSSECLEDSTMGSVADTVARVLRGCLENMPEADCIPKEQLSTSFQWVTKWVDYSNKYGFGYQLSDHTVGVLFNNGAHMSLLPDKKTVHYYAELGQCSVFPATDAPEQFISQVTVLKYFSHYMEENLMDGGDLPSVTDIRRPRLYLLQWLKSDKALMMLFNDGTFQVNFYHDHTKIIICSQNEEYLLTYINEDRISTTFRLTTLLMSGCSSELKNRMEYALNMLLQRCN

COc1cc(C(=O)N2CCC(N3CCN(C)CC3)CC2)ccc1Nc1ncc2c(n1)N(C)c1ccccc1C(=O)N2C
kinase still bound, per cent of control (MUSK (human)): 99%
kinase still bound, per cent of control (MTOR (human)): 97%
kinase still bound, per cent of control (MYLK4 (human)): 80%
kinase still bound, per cent of control (MAPK1 (human)): 85%
kinase still bound, per cent of control (MLTK (human)): 99%
kinase still bound, per cent of control (PLK2 (human)): 100%
kinase still bound, per cent of control (ACVR1B (human)): 100%
kinase still bound, per cent of control (KDR (human)): 84%
kinase still bound, per cent of control (PDPK1 (human)): 100%
kinase still bound, per cent of control (CSNK1D (human)): 81%
kinase still bound, per cent of control (MAPK7 (human)): 0.05%
kinase still bound, per cent of control (HUNK (human)): 100%
kinase still bound, per cent of control (RPS6KA6 KD2 (human)): 2.2%
kinase still bound, per cent of control (MET (human)): 100%
kinase still bound, per cent of control (TYRO3 (human)): 100%
kinase still bound, per cent of control (AKT3 (human)): 100%
kinase still bound, per cent of control (NTRK2 (human)): 100%
kinase still bound, per cent of control (ACVR1 (human)): 98%
kinase still bound, per cent of control (RPS6KA1 KD1 (human)): 73%
kinase still bound, per cent of control (MAPK4 (human)): 100%
kinase still bound, per cent of control (IRAK3 (human)): 100%
kinase still bound, per cent of control (PI4KB (human)): 95%
kinase still bound, per cent of control (CDKL1 (human)): 78%
kinase still bound, per cent of control (LATS1 (human)): 100%
kinase still bound, per cent of control (PIK3CA (human)): 74%
kinase still bound, per cent of control (IGF1R (human)): 96%
kinase still bound, per cent of control (BRAF (human)): 81%
kinase still bound, per cent of control (CDK3 (human)): 100%
kinase still bound, per cent of control (HCK (human)): 100%
kinase still bound, per cent of control (CDK19 (human)): 100%
kinase still bound, per cent of control (BMPR1B (human)): 100%
kinase still bound, per cent of control (CSNK1A1 (human)): 100%
kinase still bound, per cent of control [1]: 100%
kinase still bound, per cent of control (CSNK2A2 (human)): 93%
kinase still bound, per cent of control (BRSK1 (human)): 81%
kinase still bound, per cent of control (AURKB (human)): 38%
kinase still bound, per cent of control (TNNI3K (human)): 100%
kinase still bound, per cent of control (WEE2 (human)): 100%
kinase still bound, per cent of control (YES1 (human)): 100%
kinase still bound, per cent of control (CDK13 (human)): 100%

COc1ccc(N(C(=O)Oc2c(C)cccc2C)c2ccnc(Nc3ccc(N4CCN(C)CC4)cc3)n2)c(OC)c1
kinase still bound, per cent of control (MUSK (human)): 43%
kinase still bound, per cent of control (MTOR (human)): 100%
kinase still bound, per cent of control (MYLK4 (human)): 100%
kinase still bound, per cent of control (MAPK1 (human)): 87%
kinase still bound, per cent of control (MLTK (human)): 24%
kinase still bound, per cent of control (PLK2 (human)): 100%
kinase still bound, per cent of control (ACVR1B (human)): 1%
kinase still bound, per cent of control (KDR (human)): 15%
kinase still bound, per cent of control (PDPK1 (human)): 82%
kinase still bound, per cent of control (CSNK1D (human)): 82%
kinase still bound, per cent of control (MAPK7 (human)): 39%
kinase still bound, per cent of control (HUNK (human)): 9%
kinase still bound, per cent of control (RPS6KA6 KD2 (human)): 67%
kinase still bound, per cent of control (MET (human)): 3.9%
kinase still bound, per cent of control (TYRO3 (human)): 18%
kinase still bound, per cent of control (AKT3 (human)): 100%
kinase still bound, per cent of control (NTRK2 (human)): 82%
kinase still bound, per cent of control (ACVR1 (human)): 0%
kinase still bound, per cent of control (RPS6KA1 KD1 (human)): 58%
kinase still bound, per cent of control (MAPK4 (human)): 100%
kinase still bound, per cent of control (IRAK3 (human)): 19%
kinase still bound, per cent of control (PI4KB (human)): 100%
kinase still bound, per cent of control (CDKL1 (human)): 100%
kinase still bound, per cent of control (LATS1 (human)): 78%
kinase still bound, per cent of control (PIK3CA (human)): 100%
kinase still bound, per cent of control (IGF1R (human)): 100%
kinase still bound, per cent of control (BRAF (human)): 88%
kinase still bound, per cent of control (CDK3 (human)): 100%
kinase still bound, per cent of control (HCK (human)): 0.15%
kinase still bound, per cent of control (CDK19 (human)): 100%
kinase still bound, per cent of control (BMPR1B (human)): 80%
kinase still bound, per cent of control (CSNK1A1 (human)): 71%
kinase still bound, per cent of control [1]: 100%
kinase still bound, per cent of control (CSNK2A2 (human)): 95%
kinase still bound, per cent of control (BRSK1 (human)): 68%
kinase still bound, per cent of control (AURKB (human)): 18%
kinase still bound, per cent of control (TNNI3K (human)): 0%
kinase still bound, per cent of control (WEE2 (human)): 100%
kinase still bound, per cent of control (YES1 (human)): 0.05%
kinase still bound, per cent of control (CDK13 (human)): 100%
